Read-outs that look alike come from different tables or passages of the source. Peptide text beside a SMILES is read from it.
Experiments:
carboxypeptidase A = target: T1, carboxypeptidase A (Bos taurus, UniProt P00730); assay: Carboxypeptidase A digestion of bovine metorphamide and dynorphin; assay type: in vitro ADME; conditions: 400 ng enzyme, 37° C., pH 7.5
T1 construct: purchased Sigma (printed as σ) type 1-DFP
T1 sequence (P00730 111-419): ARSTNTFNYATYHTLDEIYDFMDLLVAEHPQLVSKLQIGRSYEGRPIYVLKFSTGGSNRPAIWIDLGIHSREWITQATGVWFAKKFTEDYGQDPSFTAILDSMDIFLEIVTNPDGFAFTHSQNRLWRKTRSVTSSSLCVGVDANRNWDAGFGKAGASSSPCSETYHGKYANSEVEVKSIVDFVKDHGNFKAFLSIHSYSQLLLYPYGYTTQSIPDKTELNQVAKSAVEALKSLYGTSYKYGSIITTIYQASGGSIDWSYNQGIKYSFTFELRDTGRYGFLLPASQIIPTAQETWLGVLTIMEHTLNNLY
Procedure: A mixture of bovine metorphamide (30-35 pmol.) and synthetic dynorphin (60-70 pmol.) was dissolved in 1.6 ml. 0.02 m Tris buffer, containing 0.2 m NaCl and 0.1% Triton X-100, pH 7.5. 5 μl of a 20 mg/ml suspension of carboxypeptidase A (σ, type 1-DFP) containing 100 μg enzyme were dissolved in 1 ml. 10% LiCl. […] aliquots were withdrawn at times 1, 5, 10 and 60 minutes an equal volume of glacial acetic acid was added to each sample to terminate the enzyme reaction. After evaporation, the samples were assayed in triplicate by radioaminoassay for dynorphin and metorphamide. 0 time samples were withdrawn before enzyme was added to determine the amounts of peptides that were initially present in the incubation mixture. A separate sample of peptide mixture that received 4 μl of 10% LiCl without the enzyme was incubated at 37° C. for 60 minutes and 50 μl aliquots of this sample were also assayed for metorphamide and dynorphin. This latter sample served as a control for any non-specific degradation of peptide that may have occurred by unknown factors. […] The results of the digestion are shown in FIG. 2 wherein the metorphamide is indicated by O--O and dynorphin by X--X. Bovine metorphamide was stable to carboxypeptidase A digestion for at least 60 minutes while dynorphin was completely digested by the enzyme after 5 minutes.

[1] = test system: myenteric plexus-longitudinal muscle of the guinea pig; assay: Opioid bioassay, guinea-pig myenteric plexus-longitudinal muscle; assay type: cell-based; conditions: mean±SEM; peptidases inhibited by bestatin, L-leucyl-L-leucine, thiorphan, captopril
Procedure: (§1) Bioassays were performed using preparations of the myenteric plexus-longitudinal muscle of the guinea pig and the vasa deferentia of the mouse, rabbit and rat. According to the procedures described by McKnight et al., Eur. J. Pharmacol., 86, 393-402 (1983) and Corbett et al., Nature, 299, 79-81 (1982). The drugs were prepared as 1 mg/ml stock solutions in water and dilutions were made in Krebs solution. The bioassays were performed on [Met 5] enkephalin and C-terminally extended Met 5 enkephalins, and compared with metorphamide.
(§2) The values shown are the mean±SEM of 4 observations and of 6 for [Met^5 ]enkephalyl-Arg-Arg-Val-Gly. The activity of the peptidases was inhibited by bestatin (10 μM, or 30 μM in the rat and rabbit), L-leucyl-L-leucine ([…]), thiorphan (0.3 μM) and captopril (10 μM).

Rat vas deferens [2] = assay: Opioid bioassay, rat vas deferens; assay type: cell-based; conditions: peptidases inhibited by bestatin (30 μM), L-leucyl-L-leucine, thiorphan, captopril
Procedure: as §1, §2

Rabbit vas deferens = assay: Opioid bioassay, rabbit vas deferens; assay type: cell-based; conditions: mean±SEM; peptidases inhibited by bestatin (30 μM), L-leucyl-L-leucine, thiorphan, captopril
Procedure: as §1, §2

Mouse vas deferens [3] = assay: Opioid bioassay, mouse vas deferens; assay type: cell-based; conditions: mean±SEM; peptidases inhibited by bestatin, L-leucyl-L-leucine, thiorphan, captopril
Procedure: as §1, §2

κ-site = target: T2, κ-site (Cavia porcellus, UniProt P41144); assay: Binding assay in guinea pig brain homogenates, [3H]-(-)-bremazocine after suppression of μ- and δ-binding
T2 construct: The assays used homogenates of guinea-pig brain; from tissue; host or cells: guinea pig brain homogenate
T2 sequence (P41144 whole entry): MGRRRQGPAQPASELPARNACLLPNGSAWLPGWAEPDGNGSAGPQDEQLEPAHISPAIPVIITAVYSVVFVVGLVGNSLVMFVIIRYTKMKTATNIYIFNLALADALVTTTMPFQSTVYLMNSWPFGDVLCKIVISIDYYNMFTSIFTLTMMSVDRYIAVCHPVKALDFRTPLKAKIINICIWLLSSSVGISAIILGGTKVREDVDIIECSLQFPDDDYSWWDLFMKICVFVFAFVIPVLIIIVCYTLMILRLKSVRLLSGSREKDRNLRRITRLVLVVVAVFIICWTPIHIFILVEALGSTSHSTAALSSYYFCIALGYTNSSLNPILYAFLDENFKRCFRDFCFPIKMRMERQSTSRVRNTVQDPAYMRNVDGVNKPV
Procedure: (§3) [^3 H]-[D-Ala^2,MePhe^4, Gly-ol^5 ]enkephalin (1 nM) was used as μ-ligand, [^3 H]-[D-Ala^2,D-Leu^5 ]enkephalin (1 nM) as a relatively selective δ-ligand and [^3 H]-(-)-bremazocine (0.3 nM) as κ-ligand, in the presence of 100 nM each of unlabelled [D-Ala^2,MePhe^4,Gly-ol^5 ]enkephalin and [D-Ala^2,D-Leu^5 ]enkephalin for the suppression of μ- and δ-binding.
(§4) The μ- and […] of [^3 H]-(-)-bremazocine was suppressed with 100 nM each of unlabelled [D-Ala^2,MePhe^4,Gly-ol^5 ]enkephalin and [D-Ala^2,D-Leu^5 ]enkephalin.

μ-site = assay: Binding assay in guinea pig brain homogenates, μ-ligand [3H]-[D-Ala2,MePhe4,Gly-ol5]enkephalin; conditions: for Ki: guinea-pig brain homogenates, 150 minutes at 0° C., mean ±SEM, read-out: KI, [3H]-[DAla2,MePhe4,Gly-ol5]enkephalin (μ-site)
Procedure: as §3, §4

δ-site = assay type: binding, guinea pig; conditions: for Ki: guinea-pig brain homogenates, 150 minutes at 0° C., mean ±SEM, read-out: KI, [3H]-[DAla2,D-Leu5]enkephalin (δ-site)
Procedure: as §3, §4

Rat vas deferens [4] = conditions: values marked ** (from literature); cited from earlier work
Mouse vas deferens [5] = conditions: values marked ** (from literature); cited from earlier work
[6] = test system: myenteric plexus-longitudinal muscle of the guinea pig; conditions: values marked ** (from literature); cited from earlier work
[7] = test system: anti-serum (R1-3) to synthetic metorphamide; assay: Radioaminoassay of metorphamide: cross-reaction with anti-serum R1-3, 125I-labeled synthetic metorphamide as tracer; assay type: binding, rabbit; conditions: on a molar basis
Excerpt: An anti-serum to synthetic metorphamide was generated in male New Zealand white rabbits by injecting synthetic peptide linked to bovine thyroglobulin by carbodiimide according the method of Weber et al., J. Neurochem., 38, 436-447 (1982). The resulting anti-serum (R1-3) was used in a radioaminoassay using ^125 I labeled synthetic metorphamide as a tracer. The procedure used was as described by Weber et al. with modifications described by Weber et al., Nature, 299, 77-79 (1982). The metorphamide or radioaminoassay requires the carboxylterminal amide group as part of the recognition site. On a molar basis the free carboxy derivative of metorphamide cross reacts with less than 1.02% and the analog of metorphamide in which the carboxyterminal amide was substituted by a Glycine residue cross reacts at less than 0.3%. The adrenal medulla opioid peptides Bam-22 and Bam-12 (Mizuno et al., Biochem. Biophys. Res. Commun., 95, 1482-1488 (1980); Mizuno et al., Biochem. Biophys. Res. Commun., 97, 1283-1290 (1980)) which are carboxyterminal extensions of metorphamide both cross react less than 0.006% in the radioaminoassay.

[8] = at KD concentrations of the tritiated ligands, total binding=1

| SMILES | IC50 [1] | IC50 (Rat vas deferens [2]) | IC50 (Rabbit vas deferens) | IC50 (Mouse vas deferens [3]) | Ki (μ-site) | Ki (δ-site) | Ki (κ-site) | other results |
| --- | --- | --- | --- | --- | --- | --- | --- | --- |
| CSCC[C@H](NC(=O)[C@H](Cc1ccccc1)NC(=O)CNC(=O)CNC(=O)[C@@H](N)Cc1ccc(O)cc1)C(=O)N[C@@H](CCCNC(=N)N)C(=O)N[C@@H](CCCNC(=N)N)C(=O)N[C@H](C(N)=O)C(C)C [F] | 2.46 ± 0.34 nM | > 3000 nM | 41.2 ± 4.9 nM | 6.2 ± 1.1 nM | 0.115 ± 0.019 nM | 2.65 ± 0.23 nM | – | time stable to carboxypeptidase A digestion (carboxypeptidase A): at least 60 minutes; relative potency (relative affinity) at the κ-site (κ-site; [8]): 0.31; relative potency (relative affinity) at the μ-site (μ-site; [8]): 0.66; activity for the μ-binding site relative to that of morphine (μ-site; ratio of relative affinities): approximately 2/3; relative potency (relative affinity) at the δ-site (δ-site; [8]): 0.03 |
| CSCC[C@H](NC(=O)[C@H](Cc1ccccc1)NC(=O)CNC(=O)CNC(=O)[C@@H](N)Cc1ccc(O)cc1)C(=O)N[C@@H](CCCNC(=N)N)C(=O)N[C@@H](CCCNC(=N)N)C(=O)N[C@H](C(=O)O)C(C)C [D, [Met^5 ]enkephalylArg-Arg-Val] | – | – | – | – | – | – | 2.11 ± 0.29 nM | – |
| CSCC[C@H](NC(=O)[C@H](Cc1ccccc1)NC(=O)CNC(=O)CNC(=O)[C@@H](N)Cc1ccc(O)cc1)C(=O)N[C@@H](CCCNC(=N)N)C(=O)N[C@@H](CCCNC(=N)N)C(=O)O [C, [Met^5]enkephalylArg-Arg] | – | – | – | – | – | – | 11.2 ± 1.8 nM | – |
| CC[C@H](C)[C@H](NC(=O)[C@H](CCCNC(=N)N)NC(=O)[C@H](CCCNC(=N)N)NC(=O)[C@H](CC(C)C)NC(=O)[C@H](Cc1ccccc1)NC(=O)CNC(=O)CNC(=O)[C@@H](N)Cc1ccc(O)cc1)C(=O)N[C@@H](CCCNC(=N)N)C(=O)N1CCC[C@H]1C(=O)N[C@@H](CCCCN)C(=O)N[C@@H](CC(C)C)C(=O)N[C@@H](CCCCN)C(=O)N[C@@H](Cc1c[nH]c2ccccc12)C(=O)N[C@@H](CC(=O)O)C(=O)N[C@@H](CC(N)=O)C(=O)N[C@@H](CCC(N)=O)C(=O)O [dynorphin] | – | – | – | – | – | – | – | time after which completely digested by carboxypeptidase A (carboxypeptidase A): 5 min |
| CSCC[C@H](NC(=O)[C@H](Cc1ccccc1)NC(=O)CNC(=O)CNC(=O)[C@@H](N)Cc1ccc(O)cc1)C(=O)O [A, [Met^5]enkephalin] | – | – | > 10000 nM | – | 9.5 ± 0.54 nM | 0.91 ± 0.07 nM | – | IC50 (Rat vas deferens [4]): 260 nM; IC50 (Mouse vas deferens [5]): 1.45 nM; IC50 [6]: 6.7 nM |
| CSCC[C@H](NC(=O)[C@H](Cc1ccccc1)NC(=O)CNC(=O)CNC(=O)[C@@H](N)Cc1ccc(O)cc1)C(=O)N[C@@H](CCCNC(=N)N)C(=O)N[C@@H](CCCNC(=N)N)C(=O)N[C@H](C(=O)NCC(=O)O)C(C)C [E] (H-YGGFMRRVG-OH; N-terminus and C-terminus assumed) | 6.62 ± 0.8 nM | > 3000 nM | 54.7 ± 11 nM | 21.4 ± 3.1 nM | 1.39 ± 0.23 nM | 8.58 ± 1.54 nM | – | cross reaction in the metorphamide radioaminoassay [7]: less than 0.3% |
